Reference: US20220265818A1, “CHIMERIC ANTIGENS FOR TREATING VIRAL INFECTION” (AKSHAYA BIO INC., priority 2019, published 2022)

Test system: HBV
Test: Liver HBV DNA in HBV transgenic mice
Conditions: ADV at 5 mg/kg/day, oral gavage

CC(C)(C)C(=O)OCOP(=O)(COCCn1cnc2c(N)ncnc21)OCOC(=O)C(C)(C)C [ADV, Adefovir dipivoxil]
liver HBV DNA: reduced liver HBV DNA
